Here are results for three substances from US8778340B2, “Anti-angiogenesis therapy for the treatment of ovarian cancer” (priority 2010, dated 2014).

For data set [1], the system named is platinum-sensitive recurrent epithelial ovarian, primary peritoneal, or fallopian tube carcinoma. Description: OCEANS phase III placebo-controlled trial of carboplatin and gemcitabine plus bevacizumab (Example 3). It is filed as in vivo, human. As for the experimental part:
This example describes a placebo-controlled, randomized, multicenter Phase III study evaluating the efficacy and safety of bevacizumab (15 mg/kg, Day 1, every 21 days), administered in combination with carboplatin (area under the curve [AUC] 4, Day 1, every 21 days) with gemcitabine (1000 mg/m2, Day 1 and Day 8, every 21 days) in women with platinum sensitive recurrent epithelial ovarian, primary peritoneal, or fallopian tube carcinoma. About 480 patients were enrolled over a period of approximately 2.5 years. Patients were randomized in either carboplatin and gemcitabine with placebo versus carboplatin and gemcitabine with bevacizumab. […]
This phase III study of bevacizumab plus chemotherapy in women with ovarian cancer met its primary endpoint. […] PFS is defined as the time from randomization to disease progression as determined by the investigator or death due to any cause, whichever occurs first. The primary endpoint of PFS was assessed by the study investigators. Measurable disease was investigator assessed using modified RECIST (Therasse et al. 2000), e.g., every 9 weeks throughout the course of the study. […]

For data set [2], the system named is newly diagnosed, previously untreated, stage III or IV epithelial ovarian, primary peritoneal or fallopian tube cancer. Description: Phase III trial of carboplatin and paclitaxel plus placebo versus plus concurrent bevacizumab versus plus concurrent and extended bevacizumab (Example 1, GOG 0218). Type of data set: in vivo, human. The note with it: preliminary assessment of safety.
From the text: Primary Objectives include to determine if the addition of 5 concurrent cycles of bevacizumab to 6 cycles of standard therapy (carboplatin and paclitaxel) [Arm II] increases the duration of progression-free survival (PFS) when compared to 6 cycles of standard therapy alone [Arm I] in women with newly diagnosed stage III (with any gross residual disease) and stage IV, epithelial ovarian, peritoneal primary or fallopian tube cancer; and, to determine if the addition of 5 concurrent cycles of bevacizumab plus extended bevacizumab for 16 cycles beyond the 6 cycles of standard therapy (carboplatin and paclitaxel) [Arm III] increases progression-free survival when compared to 6 cycles of standard therapy [Arm I] in women with newly diagnosed stage III (with any gross residual disease) and stage IV, epithelial ovarian, peritoneal primary or fallopian tube cancer.
In this study two experimental arms were selected to compare with standard cytotoxic chemotherapy with paclitaxel and carboplatin: one incorporating 5 cycles of bevacizumab (concurrent bevacizumab) and the other with bevacizumab for an additional 16 cycles after completion of chemotherapy with paclitaxel and carboplatin (extended bevacizumab). Calvert Formula for Carboplatin (AUC) Dosing: Total dose(mg)=target AUC(in mg/mL/minute)*[GFR(in mL/minute)+25]. […]

In data set [3] the test system is newly diagnosed high risk FIGO stage I-IIa and stage IIb-IV epithelial ovarian, fallopian tube or primary peritoneal cancer. Description: ICON7 phase III randomized two-arm trial of adding bevacizumab to carboplatin and paclitaxel (Example 2). Type of data set: in vivo, human. The note with it: for PFS hazard ratio (HR) (95% CI): CPB7.5+ versus CP, Log-Rank Test p 0.0010. An excerpt:
Results are presented from a phase III randomized study (ICON7) to evaluate the safety and efficacy of adding bevacizumab to standard chemotherapy with carboplatin and paclitaxel. The primary endpoint was to determine whether the addition of bevacizumab to standard chemotherapy improves progression free survival (PFS) when compared to standard chemotherapy alone in women with newly diagnosed, histologically confirmed, high risk International Federation of Gynaecology and Obstetrics (FIGO) stage I and IIa (Grade 3 or clear cell carcinoma only) and FIGO stage IIb-IV (all grades and all histological types) epithelial ovarian, fallopian tube or primary peritoneal cancer, who have undergone initial surgery (either debulking cytoreductive surgery or a biopsy if the patient has FIGO stage IV disease) and who would not be considered for cytoreductive surgery prior to disease progression. Secondary endpoints included overall survival (OS), response rate, duration of response, biological progression free interval (defined by increasing CA 125 or PFIBIO), safety and quality of life. ICON7 was a 2-arm randomized clinical trial comparing standard therapy (carboplatin and paclitaxel) with one investigational arm incorporating bevacizumab in combination with paclitaxel and carboplatin (see FIG. 8). A total of 1528 eligible women participated in the trial.
ICON7 included patients with newly diagnosed, histologically confirmed, high risk FIGO stage I and IIa (Grade 3 or clear cell carcinoma only) and FIGO stage IIb-IV (all grades and all histological types) epithelial ovarian, fallopian tube or primary peritoneal cancer, who have undergone initial surgery (either debulking cytoreductive surgery or a biopsy if the patient has FIGO stage IV disease) and who will not be considered for cytoreductive surgery prior to disease progression. Patients with measurable and non-measurable disease are eligible. Patients were considered eligible for enrollment in this trial if they fulfilled all the inclusion criteria and none of the exclusion criteria as described below:
Tumor assessments, either by CT or MRI scan, with measurements using the RECIST criteria, were performed after three and six cycles of chemotherapy, and at around nine months and 12 months in the first year, or after cycle 12 and cycle 18 of treatment for patients on the research arm. In the second and third year of the trial tumour assessments were repeated every six months and thereafter as clinically indicated. These scans were performed irrespective of whether the patient has been optimally or sub-optimally debulked, and irrespective of whether there is measurable disease, or not, on the baseline scan.
Patients were clinically assessed and CA 125 measured at the start of every chemotherapy cycle and then six weekly during the first year of the trial. In the second and third year of the trial patients were assessed and CA 125 measured every three months. In the fourth and fifth year patients were clinically assessed and CA 125 measured every six months. Thereafter assessments were yearly. Progression based on CA 125 criteria alone were verified with a CT scan. If this was negative then it was repeated at the time of suspected clinical progression.
Regular physical examination and routine blood tests were performed during treatment to monitor patient safety. Quality of life (QoL) were assessed using the EORTC QLQ C-30+OV-28 and EQ-5D questionnaires at the start of every chemotherapy cycle, every six weeks until the end of the first year and then every three months until treatment for progression commenced, or to the end of year two. An additional QoL form was completed by all patients still alive three years after randomisation. Adverse events and medical resource use were documented during the study treatment and follow-up period.

Data set [4] deals with persistent or recurrent epithelial ovarian cancer or primary peritoneal cancer. The note with it: 15 mg/kg every 21 days, cited from earlier work.
In data set [5] the test system is platinum resistant ovarian cancer or primary peritoneal serous cancer. The note with it: same dose and schedule as GOG 170-D; 44 patients; cited from earlier work.

Take “bevacizumab plus chemotherapy: OCEANS: Avastin 15 mg/kg with carboplatin and gemcitabine, followed by Avastin alone until disease progression”: in data set [1] (investigator assessed, modified RECIST, followed by bevacizumab alone until disease progression), the “progression-free survival compared to chemotherapy alone” value is listed as “increased”.

For “bevacizumab: recombinant humanized anti-VEGF monoclonal antibody; human IgG1 framework with CDRs from murine antibody A.4.6.1”, the “tolerability of the treatment regimen / adverse events” value in data set [2] is reported as “generally well tolerated”. The “preliminary assessment of adverse events” value in data set [3] (in vivo) is “consistent with previous studies”. Besides, the “safety findings / adverse events” value in data set [1] (in vivo) was “No new safety findings were observed”. Further, the response rate in data set [4] (NCI RECIST) is 21%. In addition, in data set [4], the “median PFS” value was 4.7 months and the “progression-free for at least 6 months” value is on record as 40%. For the same substance, in data set [5], the “progression-free for at least 6 months” value is listed as 27% and the responses is 16%.

On to “CPB7.5+: ICON7 chemotherapy plus bevacizumab arm (Arm B), bevacizumab continued as maintenance for a total duration of 12 months”, for which the “PFS hazard ratio (HR) (95% CI)” value in data set [3] is on record as 0.79 (0.68; 0.91). In addition, in data set [3] (listed as paclitaxel, carboplatin and anti-VEGF antibody), the “PFS hazard ratio (HR) (95% CI)” value was 0.79. Moreover, in data set [3] (number of patients (percent)), the “All Deaths” value is 107 (14.3%), the “All Related Deaths” value is recorded as 5 (0.7%), the “Deaths not due to Progression” value is 19 (2.5%) and the “Pts w. Grade 3/4/5 AE” value was 479 (64.2%). Besides, in data set [3] (number of patients (percent)), the “Pts w. Serious AE” value was 279 (37.4%), the “Pts who Disc. Any Treatment” value is 293 (39.3%) and the “Pts who Disc. Any Treatment due to AE” value is listed as 162 (21.7%). Besides, the PFS median in data set [3] (primary analysis of PFS) is listed as 18.3 months. In addition, the “difference in median PFS” value in data set [3] (versus paclitaxel and carboplatin alone) was 2.3 months.
